Data as given in article PMC7524867, “Identification of Novel Inhibitors of a Plant Group A Protein Phosphatase Type 2C Using a Combined In Silico and Biochemical Approach” (Frontiers in Plant Science, 2020).

How the values were obtained:
Format in all cases: biochemical
ABI1 [1] = molecular target: T1, ABI1 (Arabidopsis thaliana, UniProt P49597); experiment: Ser/Thr phosphatase assay, single dose […]; set-up: His-ABI1
T1 sequence (P49597 1-434): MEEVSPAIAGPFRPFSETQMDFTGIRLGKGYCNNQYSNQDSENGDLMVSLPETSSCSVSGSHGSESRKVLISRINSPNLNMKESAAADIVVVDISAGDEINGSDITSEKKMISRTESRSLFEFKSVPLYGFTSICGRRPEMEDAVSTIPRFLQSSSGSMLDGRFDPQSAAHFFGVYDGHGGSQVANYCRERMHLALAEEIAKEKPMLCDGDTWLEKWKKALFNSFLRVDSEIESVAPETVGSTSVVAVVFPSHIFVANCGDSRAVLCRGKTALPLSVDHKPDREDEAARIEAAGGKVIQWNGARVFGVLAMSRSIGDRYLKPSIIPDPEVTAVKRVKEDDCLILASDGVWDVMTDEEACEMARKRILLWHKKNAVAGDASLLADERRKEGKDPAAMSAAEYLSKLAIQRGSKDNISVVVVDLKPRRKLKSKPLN

ABI1 [2] = molecular target: T1, ABI1; experiment: Ser/Thr phosphatase assay (Promega) with phosphopeptide substrate, six-concentration IC50; set-up: recombinant His- or GST-tagged ABI1
ABI2 = molecular target: T2, ABI2 (Arabidopsis thaliana, UniProt O04719); experiment: Ser/Thr phosphatase assay at […] compound; weaker than on ABI1
T2 construct: recombinant His- or GST-tagged ABI2
T2 sequence (O04719 1-423): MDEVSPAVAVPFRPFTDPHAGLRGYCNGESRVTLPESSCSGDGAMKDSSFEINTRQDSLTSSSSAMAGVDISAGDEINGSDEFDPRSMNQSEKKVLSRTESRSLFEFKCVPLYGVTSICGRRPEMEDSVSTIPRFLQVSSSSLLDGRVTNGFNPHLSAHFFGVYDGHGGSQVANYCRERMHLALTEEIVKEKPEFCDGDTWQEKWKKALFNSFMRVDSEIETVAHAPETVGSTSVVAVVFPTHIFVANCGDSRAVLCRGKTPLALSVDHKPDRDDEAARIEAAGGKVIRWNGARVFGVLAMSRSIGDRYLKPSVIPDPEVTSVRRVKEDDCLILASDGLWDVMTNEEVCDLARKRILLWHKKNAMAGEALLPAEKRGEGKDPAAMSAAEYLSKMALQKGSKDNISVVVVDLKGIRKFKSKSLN

ABI1 [3] = molecular target: T1, ABI1; experiment: Ser/Thr phosphatase assay, single dose […]; set-up: recombinant His- or GST-tagged ABI1

Compound: COc1cccc(-n2cc(C(=O)Nc3cc(C)ccc3OC)c3ccccc3c2=O)c1 [ZINC09438755]
- Ser/Thr phosphatase assay, single dose 100 μM (ABI1 [1]): Only two molecules ZINC33009768 and ZINC09438755 were found to have significant inhibitory activity

Compound: COC(=O)c1ccccc1NC(=O)Nc1cc(NC(=O)c2ccc(F)cc2)ccc1N1CCCC1 [ZINC33009768]
- Ser/Thr phosphatase assay, single dose 100 μM (ABI1 [1]): Only two molecules ZINC33009768 and ZINC09438755 were found to have significant inhibitory activity

Compound: NCCOc1cc(C(=O)Nc2cc(OCCN)c3ccccc3n2)nc(C(=O)Nc2cc(OCCN)c3ccccc3n2)c1 [ZINC59151964, 4-(2-aminoethoxy)-N2,N6-bis[4-(2-aminoethoxy)-2-quinolinyl]-2,6-pyridinedicarboxamide]
- IC50 (ABI1 [2]): 54 ± 8 µM
- Ser/Thr phosphatase assay at 100 μM compound; weaker than on ABI1 (ABI2): ZINC59151964 is more efficient against ABI1 than ABI2

Compound: ZINC04545840
- % inhibition at 100 μM (ABI1 [3]): 42.6
